# Assays:
# [1] = molecular target: T1, human DBP (vitamin D binding protein) (Homo sapiens, UniProt P02774); assay: Relative affinity for purified human vitamin D-binding protein (hDBP); conditions: % of the activity of 1α,25-(OH)2D3 at 50% of its activity (B50)
# T1 sequence (P02774 17-474): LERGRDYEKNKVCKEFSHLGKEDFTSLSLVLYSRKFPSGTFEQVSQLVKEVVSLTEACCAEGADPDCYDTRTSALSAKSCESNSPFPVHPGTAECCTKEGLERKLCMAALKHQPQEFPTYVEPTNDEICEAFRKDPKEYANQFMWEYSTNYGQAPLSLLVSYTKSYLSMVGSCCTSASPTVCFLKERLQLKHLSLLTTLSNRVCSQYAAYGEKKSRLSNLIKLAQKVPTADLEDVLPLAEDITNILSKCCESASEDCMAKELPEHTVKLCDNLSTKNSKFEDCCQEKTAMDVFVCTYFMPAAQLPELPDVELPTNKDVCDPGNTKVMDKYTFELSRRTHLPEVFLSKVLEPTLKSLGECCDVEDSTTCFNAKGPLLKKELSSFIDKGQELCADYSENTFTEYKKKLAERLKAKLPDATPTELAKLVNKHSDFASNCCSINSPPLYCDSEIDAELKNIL
# HL-60 cells = assay: HL-60 cell differentiation (NBT reduction); type: cell-based; conditions: % of the activity of 1α,25-(OH)2D3 at 50% of its activity (B50); human leukemia cells
# Description: (§1) HL-60 cells were seeded at 1.2×10^5 cells/ml and 1α,25-(OH)2D3 or its anologs were added in ethanol (final concentration <0.2%) in RPMI 1640 medium supplemented with 10% heat-inactivated fetal calf serum (FCS) for 4 d at 37° C. Cells were then assayed for maturation by NBT reduction assay as described (22) using a hemacytometer, or for proliferation by cell counting and [^3H] thymidine incorporation. MG 63 cells, seeded at 5×10^3 cells/ml in 96 well flat bottomed culture plates (Falcon, Becton Dickinson, N.J.) in a volume of 0.2 ml of DMEM and 2% FCS, were incubated with 1α,25-(OH)2D3 or its analogues for 72 h. Osteocalcin was then measured in the culture medium using a homologous human osteocalcin RIA (39). Breast carcinoma cells (MCF-7 or GR) were grown in DMEM/nut.mix F-12 (HAM) medium supplemented with 10% FCS. Cells (5000/Well) were incubated during 24 h in 96 well tissue culture plates (Falcon 3072) followed by a 72 h incubation with/without 1α,25-(OH)2D3 or analogues. The cells were then incubated with [^3H]thymidine (1 μCi/well) for 4 h and harvested thereafter in NaOH (0.1 M) and the radioactivity counted. The protein content of the cells was measured by the Pierce BCA protein assay (Rockford, Ill.).
# MG-63 cells = assay: MG-63 osteosarcoma cells, osteocalcin secretion; type: cell-based; conditions: % of the activity of 1α,25-(OH)2D3 at 50% of its activity (B50); human osteosarcoma cells
# Description: as §1
# vitamin D receptor = molecular target: T2, vitamin D receptor (Sus scrofa, UniProt A3RGC1); conditions: % of the activity of 1α,25-(OH)2D3 at 50% of its activity (B50); 1α,25-(OH)2D3 assigned 100%
# T2 sequence (A3RGC1 1-427): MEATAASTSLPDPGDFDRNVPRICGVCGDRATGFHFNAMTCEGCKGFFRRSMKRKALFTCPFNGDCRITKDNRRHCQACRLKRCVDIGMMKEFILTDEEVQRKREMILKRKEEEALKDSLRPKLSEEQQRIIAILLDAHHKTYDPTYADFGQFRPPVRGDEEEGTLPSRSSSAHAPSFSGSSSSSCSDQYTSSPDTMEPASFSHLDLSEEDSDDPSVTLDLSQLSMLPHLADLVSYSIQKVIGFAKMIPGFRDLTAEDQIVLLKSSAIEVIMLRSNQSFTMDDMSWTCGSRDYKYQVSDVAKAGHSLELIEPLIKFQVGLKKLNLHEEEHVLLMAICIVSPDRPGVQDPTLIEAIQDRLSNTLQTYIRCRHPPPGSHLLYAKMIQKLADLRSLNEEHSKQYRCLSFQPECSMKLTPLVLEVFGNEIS
# MCF-7 cells = assay: MCF-7 breast cancer cell proliferation ([3H]thymidine incorporation); type: cell-based; conditions: % of the activity of 1α,25-(OH)2D3 at 50% of its activity (B50); human breast cancer cells
# Description: as §1
# [2] = system: human normal keratinocytes; assay: Human keratinocyte proliferation ([3H]thymidine incorporation); type: cell-based; conditions: % of the activity of 1α,25-(OH)2D3 at 50% of its activity (B50)
# Description: to evaluate the effects on cell proliferation of non-malignant cells and especially to evaluate their potential for use for dermatological disorders, the new compounds were tested in cultures of human normal keratinocytes.
# Human skin keratinocytes were isolated and cultured using a modification of the method of Kitano and Okada (38).
# Briefly, the skin from biopsies of patients with breast tumors, was cutted into pieces measuring 3-5 mm and soaked overnight at 4° C. in a solution of dispase (20 Boehringer units/ml). The epidermis was peeled from the dermis, washed with calcium- and magnesium-free phosphate buffered saline and incubated and shaked in a 0.25% trypsin solution for 10 min at room temperature. The reaction was then stopped by addition of PBS containing 10% FCS. The cells were collected after centrifugation at 4° C. for 10 min at 800 rpm. After an additional washing with PBS, the pellet was suspended in culture medium into 25 cm^2 primaria flasks from Becton Dickinson. The keratinocytes were cultivated at 37° C. in an atmosphere of 5% CO2 in air. A few hours later, the medium was replaced by new one. The medium [Keratinocyte Medium from Gibco containing Epidermal Growth Factor (5 ng/ml), Bovine Pituitary Extract (35-50 μg/ml) and antibiotics] was renewed every other day until confluency.
# Keratinocytes were cultured in 96-well plate and, after 24 hours, were treated with various concentrations of vitamin D analogues, followed by pulse labelling with 1 μCi of [^3H]thymidine for 3 hours. Cultures were washed 3 times with PBS and twice with 10% (v/v) ice cold trichloroacetic acid. Cells were solubilized with 1 M NaOH and radioactivity was counted in a scintillation counter.
# [3] = system: vitamin D-deficient chicks; assay: Calcemic effect in vitamin D-deficient chicks (serum calcium); type: in vivo, chick; conditions: % of the activity of 1α,25-(OH)2D3 at 50% of its activity (B50); vitamin D-deficient chicks injected 10 consecutive days
# Description: The antirachitic activity of the analogues was tested in 3 weeks old vitamin D-deficient chicks injected for 10 consecutive days with 1α,25-(OH)2D3 or its analogues (22,23). Serum calcium (by atomic absorptiometry) and osteocalcin (by specific RIA), duodenal calbindin D-28K (by RIA) and bone calcium content were measured. The hypercalcemic effect of the most interesting anologues was also tested in vitamin D-replete normal NMRI mice by daily sc injection of 1α,25-(OH)2D3, its analogues or the solvent for 7 consecutive days, using serum, bone and urinary calcium excretion and serum osteocalcin (by specific mouse RIA) as parameters (40).
Compound,Affinity for human DBP [1] [%],Affinity for pig receptor (vitamin D receptor) [%],Ca serum chick [3] [%],Cell differentation/cell proliferation HL-60 (HL-60 cells) [%],Cell differentation/cell proliferation MG-63 (MG-63 cells) [%],Cell differentation/cell proliferation MCF-7 (MCF-7 cells) [%],Cell differentation/cell proliferation keratinocytes [2] [%]
C=C1C(=CC=C2CCCC3C2CCC3C(C)CCCC(C)(C)O)CC(O)CC1O (stereo not drawn) [Compound 3],10,100,,720,75,,
CC(CC#CC(C)(C)O)C1CCC2C(=CC=C3CC(O)CC(O)C3)CCCC21C (stereo not drawn) [Compound 44],2,26,0.1,320,150,1000,700
C=C1/C(=C\C=C2/CCC[C@](C)([C@H](C)[C@H](C)CC[C@@H](O)C(C)C)C2)C[C@@H](O)C[C@@H]1O [Compound 5],10,80,9,4000,1000,6000,5000
CC(CC#CC1(C)CO1)C1CCC2C(=CC=C3CC(O)CC(O)C3)CCCC21C (mixture of isomers) [Compound 45],1.5,2.5,1,80,10,20,
CC(CCCC(C)(C)O)C1CCC2C(=CC=C3CC(O)CC(O)C3)CCCC21C (stereo not drawn) [Compound 43],7,25,0.1,40,100,20,100
CC(CCCCC(C)(C)O)C1CCC2C(=CC=C3CC(O)CC(O)C3)CCCC21C (stereo not drawn) [Compound 54],1,20,0.4,30,10,,
CCC(O)(C#CCC(C)C1CCC2C(=CC=C3CC(O)CC(O)C3)CCCC21C)CC (stereo not drawn) [Compound 48],0.3,40,1,2200,800,1500,350
CCC(O)(C=CC=CC(C)C1CCC2C(=CC=C3CC(O)CC(O)C3)CCCC21C)CC (stereo not drawn) [Compound 50],0,9,0.1,40,,100,60
C=C1/C(=C\C=C2/CCC[C@](C)([C@H](C)[C@H](C)CCCC(C)(C)O)C2)C[C@@H](O)C[C@@H]1O [Compound 7],20,60,5,1000,700,6000,
CC(CCCC(C)(C)O)C1CCC2C(=CC=C3CC(O)CC(O)C3)CCC(O)C21 (stereo not drawn) [Compound 2],0,0,,75,4.5,,
CC(CCCC(C)(C)O)C(C)C1(C)CCCC(=CC=C2CC(O)CC(O)C2)C1 (stereo not drawn) [Compound 8],3,45,<0.1,>1000,300,3000,

# More lines, main results first:
Affinity for human DBP [1] [%],Affinity for pig receptor (vitamin D receptor) [%],Ca serum chick [3] [%],Compound,Cell differentation/cell proliferation HL-60 (HL-60 cells) [%],Cell differentation/cell proliferation MG-63 (MG-63 cells) [%],Cell differentation/cell proliferation MCF-7 (MCF-7 cells) [%],Cell differentation/cell proliferation keratinocytes [2] [%]
8,28,,C=C1C(=CC=CCC2(C)CCC(CCCCC(O)(CC)CC)C2(C)C)CC(O)CC1O (stereo not drawn) [Compound 20],75,30,,
0,30,0.3,CCC(O)(CC)CCCCC(C)C1CCC2C(=CC=C3CC(O)CC(O)C3)CCCC21C (stereo not drawn) [Compound 55],65,3,,
0,4,<0.1,C=C1C(=CC=CCC2(C)CCC(OCCC(O)(CC)CC)C2(C)C)CC(O)CC1O (stereo not drawn) [Compound 18],10,,40,35
0,15,0.2,C=C1C(=CC=CCC2(C)CCC(CCCC(O)(CC)CC)C2(C)C)CC(O)CC1O (stereo not drawn) [Compound 16],12,10,,30
70,,,C=C1C(=CC=CC2CCCC(C(C)CCCC(C)(C)O)C2(C)C)CC(O)CC1O (stereo not drawn) [Compound 56],100,,,
50,13,,C=C1C(=CC=CCC2(C)CCC(CCCCC(C)(C)O)C2(C)C)CC(O)CC1O (stereo not drawn) [Compound 19],10,30,,
2,80,2,C=C1/C(=C\C=C\[C@@H]2CC[C@](C)(CCCCC(O)(CC)CC)C2(C)C)C[C@@H](O)C[C@@H]1O [Compound 38],100,,,

# — patent publication US6548715B1, “Structural analogues of vitamin D” (Laboratoire Theramex S.A., priority 1993, dated 2003)
